Measurements reported in PubChem BioAssay AID1918944 (Molecular Pharmacology Branch, DTP, NCI, 2023).

Tested on: 786-0 complex spheroid viability
Test: Anticancer human tumor 786-0 cell line growth inhibition;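 further: spheroids exposed to agents for seven days before readout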
Settings: for IC50: curve of first compound; for viability, T/C: stronger effect = lower value
Summary of the method: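 Drug combinations with the LSD1 inhibitor iadademstat tested on tumor cells co-cultured as spheroids with endothelial cells and mesenchymal stem cells. Concentrations descended in half-log increments from clinical Cmax or 10 microM.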

[1] = second compound 0.1 µM, first compound 0.00949 µM
[2] = second compound 0.1 µM, first compound 0.03 µM
[3] = second compound 0.1 µM, first compound 0.0949 µM
[4] = second compound 0.1 µM, first compound 0.3 µM
[5] = second compound 0.1 µM, first compound 0.949 µM
[6] = second compound 0.1 µM, first compound 3 µM
[7] = second compound 0.316 µM, first compound 0.00949 µM
[8] = second compound 0.316 µM, first compound 0.03 µM
[9] = second compound 0.316 µM, first compound 0.0949 µM
[10] = second compound 0.316 µM, first compound 0.3 µM
[11] = second compound 0.316 µM, first compound 0.949 µM
[12] = second compound 0.316 µM, first compound 3 µM
[13] = second compound 1 µM, first compound 0.00949 µM
[14] = second compound 1 µM, first compound 0.03 µM
[15] = second compound 1 µM, first compound 0.0949 µM
[16] = second compound 1 µM, first compound 0.3 µM
[17] = second compound 1 µM, first compound 0.949 µM
[18] = second compound 1 µM, first compound 3 µM
[19] = second compound 3.16 µM, first compound 0.00949 µM
[20] = second compound 3.16 µM, first compound 0.03 µM
[21] = second compound 3.16 µM, first compound 0.0949 µM
[22] = second compound 3.16 µM, first compound 0.3 µM
[23] = second compound 3.16 µM, first compound 0.949 µM
[24] = second compound 3.16 µM, first compound 3 µM
[25] = second compound 10 µM, first compound 0.00949 µM
[26] = second compound 10 µM, first compound 0.03 µM
[27] = second compound 10 µM, first compound 0.0949 µM
[28] = second compound 10 µM, first compound 0.3 µM
[29] = second compound 10 µM, first compound 0.949 µM
[30] = second compound 10 µM, first compound 3 µM

Compound: O=C(C=Cc1cccc(S(=O)(=O)Nc2ccccc2)c1)NO + NC1CC1c1ccc(-c2cccc(O)c2)cc1
- IC50 (second compound 0.1 µM): 1300 nM
- IC50 (second compound 0.316 µM): 1300 nM
- IC50 (second compound 1 µM): 1250 nM
- IC50 (second compound 3.16 µM): 1110 nM
- IC50 (second compound 10 µM): 840 nM
- viability, T/C [1]: 111%
- viability, T/C [2]: 107%
- viability, T/C [3]: 111%
- viability, T/C [4]: 97%
- viability, T/C [5]: 66.1%
- viability, T/C [6]: 8.04%
- viability, T/C [7]: 107%
- viability, T/C [8]: 107%
- viability, T/C [9]: 109%
- viability, T/C [10]: 96.1%
- viability, T/C [11]: 66.3%
- viability, T/C [12]: 7.18%
- viability, T/C [13]: 106%
- viability, T/C [14]: 110%
- viability, T/C [15]: 110%
- viability, T/C [16]: 92.5%
- viability, T/C [17]: 63.9%
- viability, T/C [18]: 7.4%
- viability, T/C [19]: 98.5%
- viability, T/C [20]: 99.2%
- viability, T/C [21]: 110%
- viability, T/C [22]: 90.7%
- viability, T/C [23]: 57.4%
- viability, T/C [24]: 4.98%
- viability, T/C [25]: 92.5%
- viability, T/C [26]: 96.9%
- viability, T/C [27]: 92.2%
- viability, T/C [28]: 87.2%
- viability, T/C [29]: 45.6%
- viability, T/C [30]: 2.44%

Compound: O=C(C=Cn1cnc(-c2cc(C(F)(F)F)cc(C(F)(F)F)c2)n1)NNc1cnccn1 + NC1CC1c1ccc(-c2cccc(O)c2)cc1
- IC50 (second compound 0.1 µM): 37.7 nM
- IC50 (second compound 0.316 µM): 34.3 nM
- IC50 (second compound 1 µM): 40 nM
- IC50 (second compound 3.16 µM): 37.5 nM
- IC50 (second compound 10 µM): 35.6 nM
- viability, T/C (second compound 0.1 µM, first compound 0.00316 µM): 92.5%
- viability, T/C (second compound 0.1 µM, first compound 0.01 µM): 72.2%
- viability, T/C (second compound 0.1 µM, first compound 0.0316 µM): 51.1%
- viability, T/C (second compound 0.1 µM, first compound 0.1 µM): 39.1%
- viability, T/C (second compound 0.1 µM, first compound 0.316 µM): 28.9%
- viability, T/C (second compound 0.1 µM, first compound 1 µM): 25.2%
- viability, T/C (second compound 0.316 µM, first compound 0.00316 µM): 100%
- viability, T/C (second compound 0.316 µM, first compound 0.01 µM): 72.5%
- viability, T/C (second compound 0.316 µM, first compound 0.0316 µM): 51.5%
- viability, T/C (second compound 0.316 µM, first compound 0.1 µM): 36.7%
- viability, T/C (second compound 0.316 µM, first compound 0.316 µM): 29.9%
- viability, T/C (second compound 0.316 µM, first compound 1 µM): 26.2%
- viability, T/C (second compound 1 µM, first compound 0.00316 µM): 95.7%
- viability, T/C (second compound 1 µM, first compound 0.01 µM): 71.3%
- viability, T/C (second compound 1 µM, first compound 0.0316 µM): 53.4%
- viability, T/C (second compound 1 µM, first compound 0.1 µM): 37.7%
- viability, T/C (second compound 1 µM, first compound 0.316 µM): 31.2%
- viability, T/C (second compound 1 µM, first compound 1 µM): 22.7%
- viability, T/C (second compound 3.16 µM, first compound 0.00316 µM): 99.4%
- viability, T/C (second compound 3.16 µM, first compound 0.01 µM): 73.5%
- viability, T/C (second compound 3.16 µM, first compound 0.0316 µM): 52.4%
- viability, T/C (second compound 3.16 µM, first compound 0.1 µM): 38.1%
- viability, T/C (second compound 3.16 µM, first compound 0.316 µM): 29.1%
- viability, T/C (second compound 3.16 µM, first compound 1 µM): 26.3%
- viability, T/C (second compound 10 µM, first compound 0.00316 µM): 108%
- viability, T/C (second compound 10 µM, first compound 0.01 µM): 67.8%
- viability, T/C (second compound 10 µM, first compound 0.0316 µM): 55%
- viability, T/C (second compound 10 µM, first compound 0.1 µM): 39.4%
- viability, T/C (second compound 10 µM, first compound 0.316 µM): 29.7%
- viability, T/C (second compound 10 µM, first compound 1 µM): 25.4%

Compound: Nc1ccccc1NC(=O)c1ccc(CNC(=O)OCc2cccnc2)cc1 + NC1CCC(NC2CC2c2ccccc2)CC1
- IC50 (second compound 0.1 µM): 1670 nM
- IC50 (second compound 0.316 µM): 1550 nM
- IC50 (second compound 1 µM): 1540 nM
- IC50 (second compound 3.16 µM): 1280 nM
- IC50 (second compound 10 µM): 756 nM
- viability, T/C [1]: 115%
- viability, T/C [2]: 121%
- viability, T/C [3]: 113%
- viability, T/C [4]: 110%
- viability, T/C [5]: 80.9%
- viability, T/C [6]: 17.7%
- viability, T/C [7]: 123%
- viability, T/C [8]: 121%
- viability, T/C [9]: 119%
- viability, T/C [10]: 109%
- viability, T/C [11]: 74.2%
- viability, T/C [12]: 17.2%
- viability, T/C [13]: 116%
- viability, T/C [14]: 116%
- viability, T/C [15]: 112%
- viability, T/C [16]: 103%
- viability, T/C [17]: 74%
- viability, T/C [18]: 16.7%
- viability, T/C [19]: 107%
- viability, T/C [20]: 105%
- viability, T/C [21]: 103%
- viability, T/C [22]: 93.6%
- viability, T/C [23]: 62%
- viability, T/C [24]: 15.1%
- viability, T/C [25]: 85.5%
- viability, T/C [26]: 82.7%
- viability, T/C [27]: 86.1%
- viability, T/C [28]: 78.1%
- viability, T/C [29]: 43%
- viability, T/C [30]: 9.91%

Compound: Nc1ncn(C2CC(O)C(CO)S2)c(=O)n1 (stereo not given) + NC1CCC(NC2CC2c2ccccc2)CC1
- IC50 (second compound 0.1 µM): 198 nM
- IC50 (second compound 0.316 µM): 207 nM
- IC50 (second compound 1 µM): 201 nM
- IC50 (second compound 3.16 µM): 174 nM
- IC50 (second compound 10 µM): 141 nM
- viability, T/C (second compound 0.1 µM, first compound 0.000949 µM): 127%
- viability, T/C (second compound 0.1 µM, first compound 0.003 µM): 127%
- viability, T/C [1]: 130%
- viability, T/C [2]: 111%
- viability, T/C [3]: 78.3%
- viability, T/C [4]: 34.1%
- viability, T/C (second compound 0.316 µM, first compound 0.000949 µM): 135%
- viability, T/C (second compound 0.316 µM, first compound 0.003 µM): 131%
- viability, T/C [7]: 130%
- viability, T/C [8]: 120%
- viability, T/C [9]: 77.1%
- viability, T/C [10]: 37%
- viability, T/C (second compound 1 µM, first compound 0.000949 µM): 122%
- viability, T/C (second compound 1 µM, first compound 0.003 µM): 123%
- viability, T/C [13]: 128%
- viability, T/C [14]: 115%
- viability, T/C [15]: 74.5%
- viability, T/C [16]: 36.9%
- viability, T/C (second compound 3.16 µM, first compound 0.000949 µM): 117%
- viability, T/C (second compound 3.16 µM, first compound 0.003 µM): 126%
- viability, T/C [19]: 126%
- viability, T/C [20]: 108%
- viability, T/C [21]: 70.2%
- viability, T/C [22]: 32.2%
- viability, T/C (second compound 10 µM, first compound 0.000949 µM): 93.6%
- viability, T/C (second compound 10 µM, first compound 0.003 µM): 91.8%
- viability, T/C [25]: 104%
- viability, T/C [26]: 98.6%
- viability, T/C [27]: 61.9%
- viability, T/C [28]: 27%
